Experimental findings from PubChem BioAssay AID2060616 (Molecular Pharmacology Branch, DTP, NCI, 2025) are described below.

Where “and” joins values, the source holds several entries; their conditions need not be identical. Equal entries are not always repeated. Some results are limits rather than exact numbers.

For this test, the system named is 377384-186-R-J1-PDC complex spheroid viability. Description: Anticancer human tumor 377384-186-R-J1-PDC patient-derived pancreatic carcinoma cell line growth inhibition [CLK]. Particulars: for viability, T/C: stronger effect = lower value; for IC50: curve of compound. An excerpt: A high-throughput screen of multi-cell type tumor spheroids was designed to identify active combinations of […] and targeted small molecules. Complex spheroids include a stromal component modeled by human endothelial cells (HUVEC) and fibroblasts modeled by human mesenchymal stem cells (MSCs). The concentration ranges selected for each drug and investigational agent were based upon clinically achievable concentrations if the clinical Cmax of the agent was known.
Compounds. The drugs and investigational agents: cirtuvivint (SM08502; NSC835563), CC-671 (NSC850746), vemurafenib (NSC761431), tapotoclax (NSC804041), sotorasib (NSC818433), adagrasib (NSC831453), MRTX-1133 (NSC836407), BAY2416964 (NSC825713), copanlisib (NSC816437), inavolisib (NSC800729), abemaciclib (NSC768073), osimertinib (NSC779217), entinostat (NSC756642), eltanexor (KPT-8602, NSC794443), venetoclax (NSC766270), ceralasertib (NSC777638), bortezomib (NSC756655), olaparib (NSC753686), talazoparib (NSC767125), alisertib (NSC759677), peposertib (NSC802822), gemcitabine (NSC613327), 5-fluorouracil (NSC19893), SN-38 (NSC673596), oxaliplatin (NSC266046), paclitaxel (NSC125973), and doxorubicin (NSC123127), were obtained from the National Cancer Institute (NCI) Developmental Therapeutics Program Chemical Repository. The FDA-approved anticancer drug set is available from the Developmental Therapeutics Program at https://dtp.cancer.gov/organization/dscb/obtaining/available plates.htm. […] The stock solutions were prepared in dimethyl sulfoxide (DMSO, Sigma-Aldrich, St. Louis, MO, cat. D2650), except for the platinum complexes which were prepared in saline (Quality Biological, Gaithersburg, MD, cat. 114-055-101), at 800-fold the tested concentration and stored at -70 degrees C prior to their use. All drugs and investigational agents were tested over a range starting from a high concentration at or near the clinical Cmax and decreasing in half-log increments. If the clinical Cmax for an agent had not been determined, the highest concentration tested was 10 microM.
Cell Culture. All cells were maintained in an incubator at 37 degrees C and 5% CO2 with 95% humidity. The PDC lines were cultured according to standard operating procedures established by the NCI PDMR. Briefly, all PDCs were thawed and cultured in Matrigel-coated flasks prepared with a working solution of 1X Ham's F-12 nutrient mix, without supplementation (Invitrogen, Waltham, MA, cat. 11765054), 100 U/mL penicillin-streptomycin (Invitrogen, cat. 15140122), and 2.5% Matrigel (Corning Inc., Corning, NY, cat. 354248) for the first three passages. The 947758-054-R-J2-PDC line was cultured in 6B/Colon 1A media, which includes advanced DMEM/F-12 (Thermo Fisher Scientific, cat. 12634028), 10 mM HEPES (Thermo Fisher Scientific, cat. 15630080), 1X GlutaMAX supplement (Thermo Fisher Scientific, cat. 35050061), 0.1 mg/mL primocin (InvivoGen, cat. ant-pm-2), 10% defined fetal bovine serum, heat inactivated (HyClone Laboratories Inc., cat. SH30070.03HI), 1.25 mM N-Acetyl-L-cysteine (Sigma-Aldrich, cat. A9165), 10 mM nicotinamide (Sigma-Aldrich, cat. N0636), 1X B-27 supplement (Thermo Fisher Scientific, cat. 17504044), 1X N-2 supplement (Thermo Fisher Scientific, cat. 17502048), and 10 microM Y-27632 dihydrochloride (Tocris Bioscience, cat. 1254). The 876862-298-R-J1-PDC was cultured in 6E media, which includes all 6B/Colon 1A media components plus 50% L-WRN conditioned media (ATCC, cat. CRL-3276), 50 ng/mL recombinant human EGF recombinant protein (hEGF; Thermo Fisher Scientific, cat. PHG0311), 10 ng/mL recombinant human fibroblast growth factor 10 (hGFG-10; PeproTech, cat. 100-26), 1 ng/mL recombinant human fibroblast growth factor 2 (hFGF-2; PeproTech, cat. 100-18B), and 1 µM prostaglandin E2 (PGE2; Tocris, cat. 2296). The 227483-062-R1-J1-PDC line was cultured in Panc media, containing all 6E components except hFGF-2, with the addition of 500 nM SB-431542 (Selleckchem, cat. S1067) and 10 nM gastrin (Tocris, cat. 3006). […]
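Note: spheroids exposed to agents for 7 days before reading.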
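Throughout, for viability, T/C: luminescence signal used as a stand-in for viable cells.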

On to `CC(=O)O[C@H]1C(=O)[C@@]2(C)[C@H]([C@H](OC(=O)c3ccccc3)[C@]3(O)C[C@H](OC(=O)[C@H](O)[C@@H](NC(=O)c4ccccc4)c4ccccc4)C(C)=C1C3(C)C)[C@]1(OC(C)=O)CO[C@@H]1C[C@@H]2O`, for which the IC50 (commonly the concentration that gives 50% inhibition) was below 31.6 nM. Also, the viability, T/C (in general, the ratio of treated to control) (compound 0.0316 µM) was 7.92% and 6.8%. For the same compound, the viability, T/C (compound 0.1 µM) is 9.5% and 7.41%. Besides, the viability, T/C (compound 0.316 µM) was 10.5% and 9.32%. Further, the viability, T/C (compound 1 µM) was 8.91% and 8.31%. Besides, the viability, T/C (compound 3.16 µM) was 10.3% and 8.38%. Further, the viability, T/C (compound 10 µM) is 14.3% and 11.1%.

For `CC1(C)CCC(CN2CCN(c3ccc(C(=O)NS(=O)(=O)c4ccc(NCC5CCOCC5)c([N+](=O)[O-])c4)c(Oc4cnc5[nH]ccc5c4)c3)CC2)=C(c2ccc(Cl)cc2)C1`, the IC50 was 5200 nM and > 10000 nM. The viability, T/C (compound 0.0316 µM) was 83.6% and 106%. Further, under “compound 0.1 µM”, the viability, T/C is 86.1% and 92.5%. Also, the viability, T/C (compound 0.316 µM) was 92.9% and 90.5%. Moreover, the viability, T/C (compound 1 µM) is 99% and 97%. For the same compound, the viability, T/C (compound 3.16 µM) was 82.7% and 83.9%.

In the case of `CC1COCCN1c1cc(C2(S(C)(=N)=O)CC2)nc(-c2ccnc3[nH]ccc23)n1` (configuration not stated), the IC50 was 2660 nM and 2050 nM. The viability, T/C (compound 0.0316 µM) was 85.7% and 90.6%. Besides, the viability, T/C (compound 0.1 µM) was 108% and 109%. The viability, T/C (compound 0.316 µM) was 83.9% and 91.1%. Moreover, for the setting “compound 1 µM”, the viability, T/C was 82.9% and 74.7%. Besides, the viability, T/C (compound 3.16 µM) was 44% and 35.3%. In addition, the viability, T/C (compound 10 µM) was 17.6% and 14.9%.

For the compound `COc1ccc([C@@H](O)c2cc(-c3ncnc4cc(N5CCOCC5)ccc34)c(F)cc2Cl)nn1`, the IC50 was 4380 nM and 2100 nM. In addition, where the note is “compound 0.0316 µM”, the viability, T/C was 88.4% and 91.3%. Further, the viability, T/C (compound 0.1 µM) is 92.5% and 94.2%. Under “compound 0.316 µM”, the viability, T/C is 73% and 78.6%. For the same compound, the viability, T/C (compound 1 µM) is 66.6% and 61.9%. Besides, where the note is “compound 3.16 µM”, the viability, T/C is 59.3% and 44.2%. Besides, for the setting “compound 10 µM”, the viability, T/C was 35.7% and 31%.

As for `COc1cccc2c1C(=O)c1c(O)c3c(c(O)c1C2=O)CC(O)(C(=O)CO)CC3OC1CC(N)C(O)C(C)O1` (configuration not stated), the IC50 is below 31.6 nM. In addition, for the setting “compound 0.0316 µM”, the viability, T/C was 12.5% and 9.59%. For the same compound, for the setting “compound 0.1 µM”, the viability, T/C is 7.59% and 5.12%. For the same compound, the viability, T/C (compound 0.316 µM) is 1.88% and 1.98%. For the same compound, the viability, T/C (compound 1 µM) was 0.76% and 0.47%. Also, the viability, T/C (compound 3.16 µM) was 3.8% and 3.34%. Moreover, the viability, T/C (compound 10 µM) was 8.38% and 5.34%.

On to `Nc1ccccc1NC(=O)c1ccc(CNC(=O)OCc2cccnc2)cc1`, for which the IC50 was 589 nM and 452 nM. Further, the viability, T/C (compound 0.0316 µM) was 85.8% and 79.5%. Besides, the viability, T/C (compound 0.1 µM) was 85.5% and 77.1%. Further, the viability, T/C (compound 0.316 µM) is 65.3% and 57.9%. The viability, T/C (compound 1 µM) was 35.8% and 30.4%. Further, the viability, T/C (compound 3.16 µM) is 13.3% and 12.8%. Under “compound 10 µM”, the viability, T/C is 2.14% and 1.31%.

Consider `Nc1ccn(C2OC(CO)C(O)C2(F)F)c(=O)n1` (configuration not stated), for which the IC50 was below 31.6 nM. For the same compound, the viability, T/C (compound 0.0316 µM) is 10.8% and 6.86%. Also, the viability, T/C (compound 0.1 µM) is 4.28% and 3.83%. Besides, the viability, T/C (compound 0.316 µM) was 5.62% and 2.98%. For the setting “compound 1 µM”, the viability, T/C was 2.41% and 2.75%. Under “compound 3.16 µM”, the viability, T/C was 3.34% and 2.18%. The viability, T/C (compound 10 µM) is 2.14% and 1.73%.

For `O=C(c1cc(Cc2n[nH]c(=O)c3ccccc23)ccc1F)N1CCN(C(=O)C2CC2)CC1`, the IC50 was 7100 nM and 3220 nM. Also, the viability, T/C (compound 0.0316 µM) is 75.9% and 81.2%. Moreover, where the note is “compound 0.1 µM”, the viability, T/C was 78.6% and 74%. Also, the viability, T/C (compound 0.316 µM) is 73.8% and 82.2%. Also, the viability, T/C (compound 1 µM) is 74.3% and 63.9%. The viability, T/C (compound 3.16 µM) is 65.9% and 51.8%. The viability, T/C (compound 10 µM) was 43.2% and 39%.

Take `O=c1[nH]cc(F)c(=O)[nH]1`: the IC50 was 2810 nM and 3050 nM. Besides, the viability, T/C (compound 0.0316 µM) is 88.5% and 94.6%. Also, the viability, T/C (compound 0.1 µM) was 82.7% and 110%. The viability, T/C (compound 0.316 µM) was 93.3% and 88.5%. The viability, T/C (compound 1 µM) is 68.9% and 68.5%. Also, the viability, T/C (compound 3.16 µM) is 50.5% and 51.5%. Besides, the viability, T/C (compound 10 µM) was 45.1% and 41.7%.
